Assay [1] deals with Vascular endothelial growth factor receptor 2 (Homo sapiens, UniProt P35968). As to the kind of experiment: Assay of Small Molecular Compounds for Inhibiting the Activity of VEGFR-2 Kinase: The assay is based on the LANCE TR-FRET technology of Perkin Elmer Inc., and the assay method is as follows:1. Dilution of compounds: a total of 11 concentrations were obtained using a 3-fold gradient dilution from the highest concentration of 2500 nM (the maximum final concentration of the drug used in this assay was 2500 nM, and the minimum final concentration was 0.042 nM).2. 2.5 μL of the gradient-diluted compounds were taken with a transfer pipette to a 384-well plate.3. Addition of enzyme: 5 μL of 2× VEGFR-2 kinase solution (concentration was 0.5 nM) was taken with a transfer pipette to the corresponding reaction well of the 384-well plate, mixed well and pre-reacted at room temperature for 30 minutes.4. 2.5 μL 4× Ultra ULight™-JAK-1 (Tyr1023) Peptide (concentration was 200 nM)/ATP (concentration was 40 μM) mixture was taken with a transfer pipette to the corresponding reaction well of the 384-well plate.5. Negative control: 2.5 μL/well 4× substrate/ATP mixture and 7.5 μL 1× Kinase Assay Buffer were added to the wells of the 384-well plate.6. Positive control: 2.5 μL/well 4× substrate/ATP mixture, 2.5 μL/well 1× Kinase Assay Buffer containing 16% DMSO, and 5 μL/well 2× VEGFR-2 kinase solution were added to the 384-well plate. The final concentration of DMSO in the reaction system was 4%.7. The mixture was mixed well and then centrifuged and reacted at room temperature in dark for 60 min.8. Termination of the enzymatic reaction: 5 μL of 4× stop solution was taken with a transfer pipette to the wells of the 384-well plate, mixed and then centrifuged, and reacted at room temperature for 5 min.9. Development of the reaction: 5 μL of 4× detection solution was taken with a transfer pipette to the wells of the 384-well plate for color development, and the mixture was mixed and then centrifuged and reacted at room temperature for 60 min.10. The 384-well plate was placed into the Envision plate reader and the signal was detected using the appropriate program.11. Analysis and processing of the raw data:The drug concentrations and the corresponding inhibition rates were input into GraphPad Prism5 for calculation, and the inhibition rate of the compounds were calculated as follows: inhibition rate (%)=(reading of positive well−reading of experimental well)/(reading of positive control well−reading of negative control well)×100%. Processing with GraphPad Prism5 software yielded the corresponding IC50 values (the concentration of the compound at which 50% of the highest inhibition of the enzyme is achieved).
Chain of Vascular endothelial growth factor receptor 2 (P35968 whole entry): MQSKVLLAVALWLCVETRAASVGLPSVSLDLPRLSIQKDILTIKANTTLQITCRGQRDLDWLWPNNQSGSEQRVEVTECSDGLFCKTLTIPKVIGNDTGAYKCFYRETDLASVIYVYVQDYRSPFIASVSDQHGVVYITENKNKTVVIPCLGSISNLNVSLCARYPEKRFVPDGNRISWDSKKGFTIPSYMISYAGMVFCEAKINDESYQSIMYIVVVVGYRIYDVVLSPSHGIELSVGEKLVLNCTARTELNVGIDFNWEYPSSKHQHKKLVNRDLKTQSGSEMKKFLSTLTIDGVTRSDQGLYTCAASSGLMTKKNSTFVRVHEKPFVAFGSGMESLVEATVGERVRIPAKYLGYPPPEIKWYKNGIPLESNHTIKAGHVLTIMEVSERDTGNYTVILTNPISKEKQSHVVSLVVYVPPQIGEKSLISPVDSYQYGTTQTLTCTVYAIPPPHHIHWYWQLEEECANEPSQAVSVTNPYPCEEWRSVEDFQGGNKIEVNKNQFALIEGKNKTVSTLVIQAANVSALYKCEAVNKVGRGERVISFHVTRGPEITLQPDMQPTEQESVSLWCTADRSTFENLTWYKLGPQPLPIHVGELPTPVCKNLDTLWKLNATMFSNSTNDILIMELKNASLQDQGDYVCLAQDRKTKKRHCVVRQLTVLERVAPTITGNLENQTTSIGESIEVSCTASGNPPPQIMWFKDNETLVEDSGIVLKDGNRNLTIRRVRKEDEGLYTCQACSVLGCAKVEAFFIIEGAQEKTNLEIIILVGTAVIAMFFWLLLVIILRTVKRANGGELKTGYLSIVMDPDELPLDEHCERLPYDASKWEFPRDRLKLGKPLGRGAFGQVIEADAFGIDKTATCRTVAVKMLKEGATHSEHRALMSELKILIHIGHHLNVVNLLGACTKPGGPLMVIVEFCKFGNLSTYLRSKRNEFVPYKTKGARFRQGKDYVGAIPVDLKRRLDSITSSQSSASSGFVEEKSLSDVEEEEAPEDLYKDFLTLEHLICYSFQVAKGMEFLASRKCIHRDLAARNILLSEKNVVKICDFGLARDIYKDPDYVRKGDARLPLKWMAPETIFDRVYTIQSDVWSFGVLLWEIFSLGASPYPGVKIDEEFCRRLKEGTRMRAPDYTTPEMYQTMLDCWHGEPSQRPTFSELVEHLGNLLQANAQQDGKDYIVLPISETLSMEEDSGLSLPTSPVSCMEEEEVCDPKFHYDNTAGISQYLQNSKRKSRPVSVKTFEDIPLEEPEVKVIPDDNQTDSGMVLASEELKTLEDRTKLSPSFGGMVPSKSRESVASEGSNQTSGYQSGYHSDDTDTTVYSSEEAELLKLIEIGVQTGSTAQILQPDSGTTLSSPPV

The target in assay [2] is Hepatocyte growth factor receptor (Homo sapiens, UniProt P08581). Description: Assay of Small Molecular Compounds for Inhibiting the Activity of c-MET Kinase: The assay is based on the LANCE TR-FRET technology of Perkin Elmer Inc., and the assay method is as follows:1. Dilution of compounds: a total of 11 concentrations were obtained using a 3-fold gradient dilution from the highest concentration of 2500 nM (the maximum final concentration of the drug used in this assay was 2500 nM, and the minimum final concentration was 0.042 nM).2. 2.5 μL of the gradient-diluted compounds were taken with a transfer pipette to a 384-well plate.3. Addition of enzyme: 5 μL of 2× c-MET kinase solution (concentration was 2 nM) was taken with a transfer pipette to the corresponding reaction well of the 384-well plate, mixed well and pre-reacted at room temperature for 5 minutes.4. 2.5 μL 4× Ultra ULight™-JAK-1 (Tyr1023) Peptide (concentration was 400 nM)/ATP (concentration was 40 μM) mixture was taken with a transfer pipette to the corresponding reaction well of the 384-well plate.5. Negative control: 2.5 μL/well 4× substrate/ATP mixture and 7.5 μL 1× Kinase Assay Buffer were added to the wells of the 384-well plate.6. Positive control: 2.5 μL/well 4× substrate/ATP mixture, 2.5 μL/well 1× Kinase Assay Buffer containing 16% DMSO, and 5 µL/well 2× c-MET kinase solution were added to the 384-well plate. The final concentration of DMSO in the reaction system was 4%.7. The mixture was mixed well and then centrifuged and reacted at room temperature in dark for 60 min.8. Termination of the enzymatic reaction: 5 μL of 4× stop solution was taken with a transfer pipette to the wells of the 384-well plate, mixed and then centrifuged, and reacted at room temperature for 5 min.9. Development of the reaction: 5 μL of 4× detection solution was taken with a transfer pipette to the wells of the 384-well plate for color development, and the mixture was mixed and then centrifuged and reacted at room temperature for 60 min.10. The 384-well plate was placed into the Envision plate reader and the signal was detected using the appropriate program.11. Analysis and processing of the raw data:12. The drug concentrations and the corresponding inhibition rates were input into GraphPad Prism5 for calculation, and the inhibition rate of the compounds were calculated as follows: inhibition rate (%)=(reading of positive well−reading of experimental well)/(reading of positive control well−reading of negative control well)×100%. Processing with GraphPad Prism5 software yielded the corresponding IC50 values (the concentration of the compound at which 50% of the highest inhibition of the enzyme is achieved).
Chain of Hepatocyte growth factor receptor (P08581 whole entry): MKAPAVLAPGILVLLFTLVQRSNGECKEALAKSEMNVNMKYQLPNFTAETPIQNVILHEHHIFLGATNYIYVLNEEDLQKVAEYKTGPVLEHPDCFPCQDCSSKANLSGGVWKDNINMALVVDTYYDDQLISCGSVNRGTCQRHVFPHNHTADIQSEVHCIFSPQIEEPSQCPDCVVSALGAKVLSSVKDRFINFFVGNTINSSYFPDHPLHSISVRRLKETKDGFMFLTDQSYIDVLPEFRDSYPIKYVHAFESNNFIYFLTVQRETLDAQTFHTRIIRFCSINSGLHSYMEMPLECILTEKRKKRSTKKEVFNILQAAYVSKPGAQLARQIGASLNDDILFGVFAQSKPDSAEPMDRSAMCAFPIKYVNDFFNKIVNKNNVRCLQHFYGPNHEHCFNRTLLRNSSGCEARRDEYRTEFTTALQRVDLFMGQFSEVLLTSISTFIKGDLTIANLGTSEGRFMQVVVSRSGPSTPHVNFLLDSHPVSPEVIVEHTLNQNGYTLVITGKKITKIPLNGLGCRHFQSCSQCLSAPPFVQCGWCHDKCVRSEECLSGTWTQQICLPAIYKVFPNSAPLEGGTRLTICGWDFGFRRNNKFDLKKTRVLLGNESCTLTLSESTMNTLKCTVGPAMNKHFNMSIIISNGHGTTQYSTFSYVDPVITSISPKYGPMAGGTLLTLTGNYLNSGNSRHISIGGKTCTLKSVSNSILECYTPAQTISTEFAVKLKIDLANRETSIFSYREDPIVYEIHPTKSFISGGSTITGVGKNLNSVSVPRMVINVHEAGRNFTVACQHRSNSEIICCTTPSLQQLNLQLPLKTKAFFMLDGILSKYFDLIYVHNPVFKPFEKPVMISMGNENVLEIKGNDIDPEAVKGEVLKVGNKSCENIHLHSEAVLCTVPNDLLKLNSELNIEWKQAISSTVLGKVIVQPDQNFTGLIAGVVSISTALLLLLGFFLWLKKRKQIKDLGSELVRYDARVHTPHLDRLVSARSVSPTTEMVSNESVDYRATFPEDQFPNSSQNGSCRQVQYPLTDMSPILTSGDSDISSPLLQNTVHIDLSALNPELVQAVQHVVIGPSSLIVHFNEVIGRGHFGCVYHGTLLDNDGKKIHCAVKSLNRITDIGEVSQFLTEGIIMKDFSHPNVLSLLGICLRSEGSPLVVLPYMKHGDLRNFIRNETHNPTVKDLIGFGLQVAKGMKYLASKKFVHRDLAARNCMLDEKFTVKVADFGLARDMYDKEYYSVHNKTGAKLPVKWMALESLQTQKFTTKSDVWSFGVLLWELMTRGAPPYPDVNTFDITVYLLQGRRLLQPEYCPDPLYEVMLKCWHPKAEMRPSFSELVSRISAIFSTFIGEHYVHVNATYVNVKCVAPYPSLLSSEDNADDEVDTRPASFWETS

Structures are written as SMILES.

Broadly, the IC50 is the concentration that inhibits the measured activity by half. Take `O=C(Nc1ccc(F)cc1)C1(C(=O)Nc2ccc(Oc3ccnc4cc(OC5COC5)c5c(c34)OCCO5)c(F)c2)CC1`: the IC50 in assay [1] and in assay [2] was under 50 nM throughout.

`COc1cc2nccc(Oc3ccc(NC(=O)C4(C(=O)Nc5ccc(F)cc5)CC4)cc3)c2c2c1OCCO2`: the concentration for half-maximal inhibition (IC50) in assay [1] and in assay [2] was under 50 nM throughout.

`CN(C)CCCOc1cc2nccc(Oc3ccc(NC(=O)C4(C(=O)Nc5ccc(F)cc5)CC4)cc3F)c2c2c1OCCO2`: the IC50 in assay [1] and in assay [2] was under 50 nM throughout.

As for `O=C(Nc1ccc(F)cc1)C1(C(=O)Nc2ccc(Oc3ccnc4cc(OC5CCOCC5)c5c(c34)OCCO5)c(F)c2)CC1`, the IC50 in assay [2] was under 50 nM.

In the case of `O=C(Nc1ccc(F)cc1)C1(C(=O)Nc2ccc(Oc3ccnc4cc(OCCCN5CCCC5)c5c(c34)OCCO5)c(F)c2)CC1`, the IC50 in assay [1] and in assay [2] was under 50 nM throughout.

In the case of `COCCCOc1cc2nccc(Oc3ccc(NC(=O)C4(C(=O)Nc5ccc(F)cc5)CC4)cc3F)c2c2c1OCCO2`, the IC50 in assay [1] and in assay [2] was under 50 nM each time.

Turning to `COCCN(C)CCCOc1cc2nccc(Oc3ccc(NC(=O)C4(C(=O)Nc5ccc(F)cc5)CC4)cc3F)c2c2c1OCCO2`, the 50% inhibitory concentration (IC50) in assay [1] and in assay [2] was under 50 nM throughout.

Take `O=C(Nc1ccc(F)cc1)C1(C(=O)Nc2ccc(Oc3ccnc4cc(OCCCN5CCOCC5)c5c(c34)OCCO5)cc2F)CC1`: the IC50 in assay [1] and in assay [2] was under 50 nM each time.

Regarding `CC1(O)CCN(CCCOc2cc3nccc(Oc4ccc(NC(=O)C5(C(=O)Nc6ccc(F)cc6)CC5)cc4F)c3c3c2OCCO3)CC1`, the IC50 in assay [1] and in assay [2] was under 50 nM throughout.

For `O=C(Nc1ccc(F)cc1)C1(C(=O)Nc2ccc(Oc3ccnc4cc(OCCCN5CCOCC5)c5c(c34)OCCO5)cc2Cl)CC1`, in assay [2], the concentration for half-maximal inhibition (IC50) was under 50 nM.

As for `O=C(Nc1ccc(F)cc1)C1(C(=O)Nc2ccc(Oc3ccnc4cc(OCCCO)c5c(c34)OCCO5)c(F)c2)CC1`, the 50% inhibitory concentration (IC50) in assay [1] and in assay [2] was under 50 nM throughout.

Take `CC(C)(O)COc1cc2nccc(Oc3ccc(NC(=O)C4(C(=O)Nc5ccc(F)cc5)CC4)cc3F)c2c2c1OCCO2`: the IC50 in assay [1] and in assay [2] was under 50 nM throughout.

Take `COc1cc2nccc(Oc3cc(Cl)c(NC(=O)C4(C(=O)Nc5ccc(F)cc5)CC4)cc3F)c2c2c1OCCO2`: the concentration for half-maximal inhibition (IC50) is over 5000 nM in assay [1] and under 50 nM in assay [2].

On to `CC1(N)CCN(CCCOc2cc3nccc(Oc4ccc(NC(=O)C5(C(=O)Nc6ccc(F)cc6)CC5)cc4F)c3c3c2OCCO3)CC1`, for which the IC50 in assay [1] and in assay [2] was under 50 nM each time.

In the case of `CC(C)Oc1cc2nccc(Oc3ccc(NC(=O)C4(C(=O)Nc5ccc(F)cc5)CC4)cc3F)c2c2c1OCCO2`, the IC50 in assay [2] was under 50 nM.

Turning to `CCOc1cc2nccc(Oc3ccc(NC(=O)C4(C(=O)Nc5ccc(F)cc5)CC4)cc3F)c2c2c1OCCO2`, the IC50 in assay [1] and in assay [2] was under 50 nM in each case.

On to `O=C(Nc1ccc(F)cc1)C1(C(=O)Nc2ccc(Oc3ccnc4cc(OCCCN5CCOCC5)c5c(c34)OCCO5)c(Cl)c2)CC1`, for which the IC50 in assay [2] was under 50 nM.

Consider `CC1(C)CCN(CCCOc2cc3nccc(Oc4ccc(NC(=O)C5(C(=O)Nc6ccc(F)cc6)CC5)cc4F)c3c3c2OCCO3)CC1`, for which the 50% inhibitory concentration (IC50) in assay [1] and in assay [2] was under 50 nM each time.

On to `CN1CCN(CCCOc2cc3nccc(Oc4ccc(NC(=O)C5(C(=O)Nc6ccc(F)cc6)CC5)cc4F)c3c3c2OCCO3)CC1`, for which the IC50 in assay [1] and in assay [2] was under 50 nM throughout.

As to `COc1cc2nccc(Oc3ccc(NC(=O)C4(C(=O)Nc5ccc(F)cc5)CC4)cc3F)c2c2c1OCCO2`, the IC50 in assay [1] and in assay [2] was under 50 nM in each case.

With `N#CCOc1cc2nccc(Oc3ccc(NC(=O)C4(C(=O)Nc5ccc(F)cc5)CC4)cc3F)c2c2c1OCCO2`, the IC50 in assay [2] was under 50 nM.

`O=C(Nc1ccc(F)cc1)C1(C(=O)Nc2ccc(Oc3ccnc4cc(OCCCN5CCOCC5)c5c(c34)OCCO5)cc2)CC1`: the IC50 in assay [1] and in assay [2] was under 50 nM throughout.

Take `CN(CCCOc1cc2nccc(Oc3ccc(NC(=O)C4(C(=O)Nc5ccc(F)cc5)CC4)cc3F)c2c2c1OCCO2)C1CCC1`: the IC50 in assay [1] and in assay [2] was under 50 nM throughout.

`O=C(Nc1ccc(F)cc1)C1(C(=O)Nc2ccc(Oc3ccnc4cc(OCCO)c5c(c34)OCCO5)c(F)c2)CC1`: the IC50 in assay [1] and in assay [2] was under 50 nM in each case.

As for `O=C(Nc1ccc(F)cc1)C1(C(=O)Nc2ccc(Oc3ccnc4cc(OCCCN5CCOCC5)c5c(c34)OCCO5)c(F)c2)CC1`, the half-inhibitory concentration (IC50) in assay [1] and in assay [2] was under 50 nM throughout.

Turning to `COCCOc1cc2nccc(Oc3ccc(NC(=O)C4(C(=O)Nc5ccc(F)cc5)CC4)cc3F)c2c2c1OCCO2`, the 50% inhibitory concentration (IC50) in assay [1] and in assay [2] was under 50 nM in each case.

Regarding `O=C(Nc1ccc(F)cc1)C1(C(=O)Nc2ccc(Oc3ccnc4cc(OC5CCOC5)c5c(c34)OCCO5)c(F)c2)CC1` (stereo unspecified), the IC50 in assay [1] and in assay [2] was under 50 nM each time.

In the case of `O=C(Nc1ccc(F)cc1)C1(C(=O)Nc2ccc(Oc3ccnc4cc(OCCCN5CCS(=O)(=O)CC5)c5c(c34)OCCO5)c(F)c2)CC1`, the concentration for half-maximal inhibition (IC50) in assay [1] and in assay [2] was under 50 nM in each case.

With `NC1(COc2cc3nccc(Oc4ccc(NC(=O)C5(C(=O)Nc6ccc(F)cc6)CC5)cc4F)c3c3c2OCCO3)CC1`, the half-maximal inhibitory concentration (IC50) in assay [1] and in assay [2] was under 50 nM each time.

For `CN(C)CCCCCCOc1cc2nccc(Oc3ccc(NC(=O)C4(C(=O)Nc5ccc(F)cc5)CC4)cc3F)c2c2c1OCCO2`, the half-maximal inhibitory concentration (IC50) in assay [1] and in assay [2] was under 50 nM each time.

`O=C(Nc1ccc(F)cc1)C1(C(=O)Nc2ccc(Oc3ccnc4cc(OCCCN5CCCCC5)c5c(c34)OCCO5)c(F)c2)CC1`: the IC50 in assay [1] and in assay [2] was under 50 nM throughout.

`N#CCCCOc1cc2nccc(Oc3ccc(NC(=O)C4(C(=O)Nc5ccc(F)cc5)CC4)cc3F)c2c2c1OCCO2`: the IC50 in assay [1] and in assay [2] was under 50 nM each time.

With `COc1cc2nccc(Oc3ccc(NC(=O)C4(C(=O)Nc5ccc(F)cc5)CC4)c(F)c3)c2c2c1OCCO2`, the IC50 in assay [1] and in assay [2] was under 50 nM in each case.

The record behind these values is ChEMBL document CHEMBL5729245, “Dioxinoquinoline compounds, preparation method and uses thereof” (2022).
